Earlier results, collected in patent US20190167706A1, “Solid Pharmaceutical Composition Comprising Amorphous Sofosbuvir” (Sandoz AG, priority 2016, published 2019).

**Q.** For CC(C)OC(=O)[C@H](C)N[P@](=O)(OC[C@H]1O[C@@H](n2ccc(=O)[nH]c2=O)[C@](C)(F)[C@@H]1O)Oc1ccccc1 [Amorphous sofosbuvir, (S)-isopropyl 2-(((S)-(((2R,3R,4R,5R)-5-(2,4-dioxo-3,4-dihydropyrimidin-1(2H)-yl)-4-fluoro-3-hydroxy-4-methyltetrahydrofuran-2-yl)methoxy)(phenoxy)phosphoryl)amino)propanoate], which “relative humidity at which the substance deliquesces” value (amorphous form, compared to crystalline forms) is on record?
**A.** above 50%

**Q.** With CC(C)OC(=O)[C@H](C)N[P@](=O)(OC[C@H]1O[C@@H](n2ccc(=O)[nH]c2=O)[C@](C)(F)[C@@H]1O)Oc1ccccc1 [sofosbuvir, (S)-isopropyl 2-(((S)-(((2R,3R,4R,5R)-5-(2,4-dioxo-3,4-dihydropyrimidin-1(2H)-yl)-4-fluoro-3-hydroxy-4-methyltetrahydrofuran-2-yl)methoxy)(phenoxy)phosphoryl)amino)propanoate] as the compound, how does the “moisture stability: deliquescence under stress conditions” value (40° C. and a relative humidity (RH) of 75%) read?
**A.** deliquesces after a few hours
